We go through 28 compounds from patent publication US20050090522A1 (priority 2001, published 2005).

SMILES strings stand for the structures. Where two headings read alike, the source gives them in different places. Where only a bound is given, the exact number is not on record here.

For this assay, the system named is HIV-1. As to the kind of experiment: HIV-1 single-round infectious luciferase reporter virus (pseudotype) assay in HeLa CD4 CCR5 cells. It is filed as cell-based. The method, then:
• Virus production—Human embryonic Kidney cell line, 293, propagated in Dulbecco's Modified Eagle Medium (Life Technologies, Gaithersburg, Md.) containing 10% fetal Bovine serum (FBS, Sigma, St. Louis, Mo.). • Virus infection—Human epithelial cell line, HeLa, expressing the HIV-1 receptors CD4 and CCR^5 was propagated in Dulbecco's Modified Eagle Medium (Life Technologies, Gaithersburg, Md.) containing 10% fetal Bovine serum (FBS, Sigma, St. Louis, Mo.) and supplemented with 0.2 mg/mL Geneticin (Life Technologies, Gaithersburg, Md.) and 0.4 mg/mL Zeocin (Invitrogen, Carlsbad, Calif.). […] Transfections were performed using lipofectAMINE PLUS reagent as described by the manufacturer (Life Technologies, Gaithersburg, Md.). Experiment • 1. Compound was added to HeLa CD4 CCR5 cells plated in 96 well plates at a cell density of 5×10^4 cells per well in 100 μl Dulbecco's Modified Eagle Medium containing 10% fetal Bovine serum at a concentration of […]. • 2. 100 μl of single-round infectious reporter virus in Dulbecco's Modified Eagle Medium was then added to the plated cells and compound at an approximate multiplicity of infection (MOI) of 0.01, resulting in a final volume of 200 μl per well and a final compound concentration of <10 μM. • 3. Samples were harvested 72 h after infection. • 4. Viral infection was monitored by measuring luciferase expression from viral DNA in the infected cells using a luciferase reporter gene assay kit (Roche Molecular Biochemicals, Indianapolis, Ind.). Infected cell supernatants were removed and 50 μl of Dulbecco's Modified Eagle Medium (without phenol red) and 50 μl of luciferase assay reagent reconstituted as described by the manufacturer (Roche Molecular Biochemicals, Indianapolis, Ind.) was added per well. Luciferase activity was then quantified by measuring luminescence using a Wallac microbeta scintillation counter. • 5. […] An EC50 provides a method for comparing the antiviral potency of the compounds of this invention. The effective concentration for fifty percent inhibition (EC50) was calculated with the Microsoft Excel Xlfit curve fitting software. For each compound, curves were generated from percent inhibition calculated at 10 different concentrations by using a four paramenter logistic model (model 205). Table 1 is the key for the data in Tables 2-4. Cytoxicity assays were conducted with the same HeLa using methodology well known in the art.
In Table 5, X2, X4 etc. indicates the point of attachment. […] The data at 10 μM was calculated in the following manner:
For compounds tested at concentrations less than 10 μM, the percent inhibition at 10 μM was determined by extrapolation using the XLfit curve fitting feature of the Microsoft Excel spreadsheet software. Curves were obtained from 10 data points (% inhibition determined at 10 concentrations of compound) by using a four parameter logistic model (XLfit model 205: y=A+((B−A)/(I+((C/x)^D))), where, A=minimum y, B=maximum y, C=logEC50, D=slope factor, and x and y are known data values. Extrapolations were performed with the A and B parameters unlocked. […]
(In general: A reporter such as luciferase makes a cellular process visible.)

[1] abbreviates: Human immunodeficiency virus 1, HeLa-CD4/CCR5, read-out: EC50 Group from TABLE 1, HeLa CD4 CCR5 cells, single-round infectious luciferase reporter virus.
Setting [2] is: Human immunodeficiency virus 1, HeLa-CD4/CCR5, read-out: EC50 Group from Table 1, Table 4, HeLa CD4 CCR5 cells, single-round luciferase reporter virus.

The EC50 is the midpoint of the concentration-response curve.

Regarding `C[C@@H]1CN(C(=O)c2ccccc2)CCN1C(=O)C(=O)c1c[nH]c2c(-c3cnccn3)nccc12` [Example 33, 1-benzoyl-3-(R)-methyl-4-[(7-(pyrazin-2-yl)-6-azaindol-3-yl)-oxoacetyl]piperazine], the EC50 under setting [1] was under 1000 nM. For `O=C(C(=O)N1CCN(C(=O)c2ccccc2)CC1)c1c[nH]c2c(-c3cnccn3)nccc12` [Example 34, 1-benzoyl-4-[(7-(pyrazin-2-yl)-6-azaindol-3-yl)-oxoacetyl]piperazine], the EC50 under setting [1] is under 1000 nM. Still for that read-out and setting: in the case of `COc1cnc(-c2ccccn2)c2[nH]cc(C(=O)C(=O)N3CCN(C(=O)c4ccccc4)CC3)c12` [Example 36, 1-benzoyl-4-[(4-methoxy-7-(pyridin-2-yl)-6-azaindol-3-yl)-oxoacetyl]piperazine] it was under 1000 nM. The same measure, in the same setting: the figure for `C[C@@H]1CN(C(=O)c2ccccc2)CCN1C(=O)C(=O)c1c[nH]c2c(-c3cncnc3)ncc(F)c12` [Example 41, 1-benzoyl-3-(R)-methyl-4-[(4-fluoro-7-(pyrimidin-5-yl)-6-azaindol-3-yl)-oxoacetyl]piperazine] is under 1000 nM; for `CCOc1ncc(-c2ncc(OC)c3c(C(=O)C(=O)N4CCN(C(=O)c5ccccc5)CC4)c[nH]c23)s1` [Example 45, 1-benzoyl-4-[(4-methoxy-7-(2-ethoxy-thiazol-5-yl)-6-azaindol-3-yl)-oxoacetyl]piperazine] it is under 1000 nM; for `COc1cnc(-c2cncc(N)n2)c2[nH]cc(C(=O)C(=O)N3CCN(C(=O)c4ccccc4)CC3)c12` [Example 46, 1-benzoyl-4-[(4-methoxy-7-(2-amino-pyrazin-6-yl)-6-azaindol-3-yl)-oxoacetyl]piperazine] it is under 1000 nM. Turning to `COc1cnc(-c2cnc(NS(C)(=O)=O)cn2)c2[nH]cc(C(=O)C(=O)N3CCN(C(=O)c4ccccc4)CC3)c12` [Example 47], under setting [1], the EC50 is under 1000 nM. As to `COc1cnc(-c2ncccn2)c2[nH]cc(C(=O)C(=O)N3CCN(C(=O)c4ccccc4)CC3)c12` [Example 49, 1-benzoyl-4-[(4-methoxy-7-(pdin-2-yl)-6-azaindol-3-yl)-oxoacetyl]piperazine], under setting [1], the EC50 is under 1000 nM.

Take `COc1cnc(-c2nccs2)c2[nH]cc(C(=O)C(=O)N3CCN(C(=O)c4ccccn4)CC3)c12` [Example 50]: the EC50 under setting [1] was under 1000 nM. Take `C[C@@H]1CN(C(=O)c2ccccc2)CCN1C(=O)C(=O)c1c[nH]c2c(-c3cncnc3)ccnc12` [Example 51, 1-benzoyl-3-(R)-methyl-4-[(7-(pyrimidin-5-yl)-4-azaindol-3-yl)-oxoacetyl]piperazine]: under setting [2], the half-maximal effective concentration (EC50) was under 1000 nM.

For the compound `C[C@@H]1CN(C(=O)c2ccccc2)CCN1C(=O)C(=O)c1c[nH]c2c(-c3cnccn3)ccnc12` [Example 52, 1-benzoyl-3-(R)-methyl-4-[(7-(pyrazin-2-yl)-4-azaindol-3-yl)-oxoacetyl]piperazine], the EC50 under setting [2] is under 1000 nM. On to `C[C@@H]1CN(C(=O)c2ccccc2)CCN1C(=O)C(=O)c1c[nH]c2c(-c3nccs3)ccnc12` [Example 53, 1-benzoyl-3-(R)-methyl-4-[(7-(thiazol-2-yl)-4-azaindol-3-yl)-oxoacetyl]piperazine], for which the 50% effective concentration (EC50) under setting [2] is under 1000 nM. As for `CCOc1ncc(-c2ccnc3c(C(=O)C(=O)N4CCN(C(=O)c5ccccc5)C[C@H]4C)c[nH]c23)s1` [Example 54, 1-benzoyl-3-(R)-methyl-4-[(7-(2-ethoxy-thiazol-5-yl)-4-azaindol-3-yl)-oxoacetyl]piperazine], the EC50 under setting [2] is under 1000 nM. Take `COc1cnc(-c2cnc(C(N)=O)cn2)c2[nH]cc(C(=O)C(=O)N3CCN(C(=O)c4ccccc4)CC3)c12` [Example 55, 1-benzoyl-4-[(4-methoxy-7-(2-aminocarbonyl-pyrazin-5-yl)-6-azaindol-3-yl)-oxoacetyl]piperazine]: the concentration for a half-maximal effect (EC50) under setting [1] is under 1000 nM. Turning to `C[C@@H]1CN(C(=O)c2ccccc2)CCN1C(=O)C(=O)c1c[nH]c2nc(-c3nnn[nH]3)ccc12` [Example 56], the EC50 (Human immunodeficiency virus 1, HeLa-CD4/CCR5, 72 h, read-out: EC50 Group from Table 1, HeLa CD4 CCR5 cells, luciferase reporter virus, harvested 72 h after infection) lay in the range of 1000 to 5000 nM. As for `CON(C)C(=O)c1ccnc2c(C(=O)C(=O)N3CCN(C(=O)c4ccccc4)C[C@H]3C)c[nH]c12` [Example 57], the EC50 under setting [2] was under 1000 nM.

In the case of `CON(C)C(=O)c1cc(Cl)nc2c(C(=O)C(=O)N3CCN(C(=O)c4ccccc4)C[C@H]3C)c[nH]c12` [Example 58, 1-benzoyl-3-(R)-methyl-4-[(5-chloro-(7-(methoxymethylamino)carbonyl)-4-azaindol-3-yl)-oxoacetyl]piperazine], the 50% effective concentration (EC50) under setting [2] was under 1000 nM. For the compound `C[C@@H]1CN(C(=O)c2ccccc2)CCN1C(=O)C(=O)c1c[nH]c2c(-c3ncc[nH]3)cc(Cl)nc12` [Example 60, 1-benzoyl-3-(R)-methyl-4-[(5-chloro-7-(imidazol-2-yl)-4-azaindol-3-yl)-oxoacetyl]piperazine], the EC50 under setting [2] was under 1000 nM. Turning to `Cc1c[nH]c(-c2cc(Cl)nc3c(C(=O)C(=O)N4CCN(C(=O)c5ccccc5)C[C@H]4C)c[nH]c23)n1` [Example 61, l-benzoyl-3-(R)-methyl-4-[(5-chloro-7-(4-methyl-imidazol-2-yl)-4-azaindol-3-yl)-oxoacetyl]piperazine], under setting [2], the EC50 is under 1000 nM. Take `Cc1nc(-c2cc(Cl)nc3c(C(=O)C(=O)N4CCN(C(=O)c5ccccc5)C[C@H]4C)c[nH]c23)[nH]c1C` [Example 62, 1-benzoyl-3-(R)-methyl-4-[(5-chloro-7-(4,5-dimethyl-imidazol-2-yl)-4-azaindol-3-yl)-oxoacetyl]piperazine]: the EC50 under setting [2] was under 1000 nM. As to `C[C@@H]1CN(C(=O)c2ccccc2)CCN1C(=O)C(=O)c1c[nH]c2c(-c3cnco3)cc(Cl)nc12` [Example 63, 1-benzoyl-3-(R)-methyl-4-[(5-chloro-7-(oxazol-5-yl)-4-azaindol-3-yl)-oxoacetyl]piperazine], the EC50 under setting [2] is under 1000 nM.

On to `Cc1cc(-c2cc(Cl)nc3c(C(=O)C(=O)N4CCN(C(=O)c5ccccc5)C[C@H]4C)c[nH]c23)[nH]n1` [Example 64, 1-benzoyl-3-(R)-methyl-4-[(5-chloro-7-(3-methyl-pyrazol-5-yl)-4-azaindol-3-yl)-oxoacetyl]piperazine], for which the half-maximal effective concentration (EC50) under setting [2] is under 1000 nM.

Turning to `COc1ccc(-c2ccnc3c(C(=O)C(=O)N4CCN(C(=O)c5ccccc5)CC4)c[nH]c23)cc1` [Example 65, 1-(benzoyl)-4-[(7-(4-methoxy)-4-azaindol-3-yl)-oxoacetyl]piperazine], under setting [2], the EC50 is under 1000 nM. On to `COc1ccc(-c2ccnc3c(C(=O)C(=O)N4CCN(C(=O)c5ccccc5)C[C@@H]4C)c[nH]c23)cc1` [Example 66, 1-benzoyl-3-(S)-methyl-4-[(7-(4-methoxy)-4-azaindol-3-yl)-oxoacetyl]piperazine], for which the EC50 under setting [2] was under 1000 nM. On the same count and under the same terms, the figure for `COc1ccc(-c2ccnc3c(C(=O)C(=O)N4CCN(C(=O)c5ccccc5)C[C@H]4C)c[nH]c23)cc1` [Example 67, 1-benzoyl-3-(R)-methyl-4-[(7-(4-methoxyphenyl)-4-azaindol-3-yl)oxoacetyl]piperazine] is under 1000 nM. As to `COc1cc(-c2ncc(OC)c3c(C(=O)C(=O)N4CCN(C(=O)c5ccccc5)CC4)c[nH]c23)nc(OC)n1` [Example 68, 1-benzoyl-4-[(4-methoxy-7-(2,6-dimethoxy-pyrimidin-4-yl)-6-azaindol-3-yl)-oxoacetyl]piperazine], under setting [1], the EC50 was under 1000 nM.

Regarding `COc1ccc(-c2ncc(OC)c3c(C(=O)C(=O)N4CCN(C(=O)c5ccccc5)CC4)c[nH]c23)cn1` [Example 69, 1-benzoyl-4-[(4-methoxy-7-(6-methoxy-pyridin-3-yl)-6-azaindol-3-yl)-oxoacetyl]piperazine], under setting [1], the half-maximal effective concentration (EC50) is under 1000 nM. For the compound `CCN(CC)c1nc(-c2ncc(OC)c3c(C(=O)C(=O)N4CCN(C(=O)c5ccccc5)CC4)c[nH]c23)cs1` [Example 70, 1-benzoyl-4-[(4-methoxy-7-(2-diethylamino-thiazol-4-yl)-6-azaindol-3-yl)-oxoacetyl]piperazine], under setting [1], the EC50 is under 1000 nM.
